Results from ChEMBL document CHEMBL1201862, “PubChem BioAssay data set” (2004).
Calls of active or inactive are those of the source.

What was measured:
[1] = target: Dual specificity protein phosphatase 3 (Homo sapiens, UniProt P51452); experiment: VHR1 inhibitor Ki determination, SAR follow-up, biochemical, colorimetric (AID 2004)
[2] = NIH-3T3 fibroblast cytotoxicity, dose response, cytotoxicity control, cell-based, fluorescence, Alamar Blue, secondary assay (AID 2327); type: functional;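 further: NIH-3T3 mouse fibroblasts cultured with fluconazole at 8 µg/mL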
cells [3] = type: functional, cell-based
[4] = C. albicans growth with fluconazole, confirmation, fluorescence, retest (AID 2467); type: functional, cell-based
cells [5] = type: functional, cell-based; remark: listed apart in the source
[6] = Luminescence Cell-Based Dose Retest to Confirm Inhibitors of Cancer Stem Cells. [Related pubchem assays (depositor defined):AID2717, AID2721]; type: functional; conditions: Homo sapiens
[7] = target: Cyclin-dependent kinase 5/CDK5 activator 1 (Homo sapiens, UniProt Q00535); experiment: CDK5/p35 kinase inhibitors, dose response, biochemical, cherry-picked samples, set 2 (AID 504545)
Cyclin-dependent kinase 5/CDK5 activator 1, sequence (Q00535 whole entry): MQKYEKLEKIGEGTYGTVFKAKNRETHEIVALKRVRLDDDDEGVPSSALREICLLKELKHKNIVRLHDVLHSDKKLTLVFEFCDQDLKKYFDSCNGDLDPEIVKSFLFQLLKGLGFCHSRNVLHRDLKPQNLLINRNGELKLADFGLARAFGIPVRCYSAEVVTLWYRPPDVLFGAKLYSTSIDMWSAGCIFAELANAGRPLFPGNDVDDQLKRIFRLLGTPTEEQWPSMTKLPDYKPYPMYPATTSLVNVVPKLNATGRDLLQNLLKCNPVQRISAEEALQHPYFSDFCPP
Cyclin-dependent kinase 5/CDK5 activator 1, sequence (Q15078 whole entry, further chain): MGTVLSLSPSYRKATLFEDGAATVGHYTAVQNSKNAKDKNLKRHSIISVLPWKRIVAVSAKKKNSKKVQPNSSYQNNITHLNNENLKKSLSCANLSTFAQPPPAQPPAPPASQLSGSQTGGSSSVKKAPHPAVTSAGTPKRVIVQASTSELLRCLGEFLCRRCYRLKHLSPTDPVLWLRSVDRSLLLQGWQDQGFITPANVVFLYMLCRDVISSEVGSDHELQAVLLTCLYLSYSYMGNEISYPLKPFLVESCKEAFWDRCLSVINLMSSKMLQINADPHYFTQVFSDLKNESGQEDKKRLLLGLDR

[8] = target: T1, Replicative DNA helicase DnaB (Mycobacterium tuberculosis, UniProt P9WMR3); experiment: DnaB intein splicing inhibitors, dose response, biochemical, cell-free fluorescence (AID 449749); type: functional
T1 sequence (P9WMR3 whole entry): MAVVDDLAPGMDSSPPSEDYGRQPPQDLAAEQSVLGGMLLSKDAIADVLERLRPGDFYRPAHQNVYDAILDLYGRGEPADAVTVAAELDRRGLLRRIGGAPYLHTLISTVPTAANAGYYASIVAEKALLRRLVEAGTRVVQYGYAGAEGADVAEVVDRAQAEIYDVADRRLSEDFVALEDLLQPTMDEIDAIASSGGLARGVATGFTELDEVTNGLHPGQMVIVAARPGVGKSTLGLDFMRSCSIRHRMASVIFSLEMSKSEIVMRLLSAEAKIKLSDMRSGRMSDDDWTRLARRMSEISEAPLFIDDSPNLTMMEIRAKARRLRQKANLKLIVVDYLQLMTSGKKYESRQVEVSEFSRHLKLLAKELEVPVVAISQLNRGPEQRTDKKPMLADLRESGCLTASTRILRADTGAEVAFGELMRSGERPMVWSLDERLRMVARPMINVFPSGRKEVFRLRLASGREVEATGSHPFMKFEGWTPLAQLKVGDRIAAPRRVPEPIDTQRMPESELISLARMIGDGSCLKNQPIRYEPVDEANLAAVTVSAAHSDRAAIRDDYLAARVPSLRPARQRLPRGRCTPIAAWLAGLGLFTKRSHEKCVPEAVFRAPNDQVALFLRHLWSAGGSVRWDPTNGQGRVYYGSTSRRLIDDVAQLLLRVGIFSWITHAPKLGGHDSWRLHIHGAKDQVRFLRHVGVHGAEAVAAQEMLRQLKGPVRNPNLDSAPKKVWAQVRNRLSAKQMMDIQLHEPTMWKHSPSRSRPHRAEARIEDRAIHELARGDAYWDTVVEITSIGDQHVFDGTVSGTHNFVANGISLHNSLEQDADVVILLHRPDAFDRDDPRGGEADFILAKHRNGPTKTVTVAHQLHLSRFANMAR

Protein RecA = target: T2, Protein RecA (Mycobacterium tuberculosis, UniProt P9WHJ3); experiment: Fluorescence Cell-Free Homogeneous Dose Retest to Identify Inhibitors of RecA-Intein Splicing Activity. [Related pubchem assays (depositor defined):AID2097, AID2223, AID489010, AID492950]; type: functional
T2 sequence (P9WHJ3 whole entry): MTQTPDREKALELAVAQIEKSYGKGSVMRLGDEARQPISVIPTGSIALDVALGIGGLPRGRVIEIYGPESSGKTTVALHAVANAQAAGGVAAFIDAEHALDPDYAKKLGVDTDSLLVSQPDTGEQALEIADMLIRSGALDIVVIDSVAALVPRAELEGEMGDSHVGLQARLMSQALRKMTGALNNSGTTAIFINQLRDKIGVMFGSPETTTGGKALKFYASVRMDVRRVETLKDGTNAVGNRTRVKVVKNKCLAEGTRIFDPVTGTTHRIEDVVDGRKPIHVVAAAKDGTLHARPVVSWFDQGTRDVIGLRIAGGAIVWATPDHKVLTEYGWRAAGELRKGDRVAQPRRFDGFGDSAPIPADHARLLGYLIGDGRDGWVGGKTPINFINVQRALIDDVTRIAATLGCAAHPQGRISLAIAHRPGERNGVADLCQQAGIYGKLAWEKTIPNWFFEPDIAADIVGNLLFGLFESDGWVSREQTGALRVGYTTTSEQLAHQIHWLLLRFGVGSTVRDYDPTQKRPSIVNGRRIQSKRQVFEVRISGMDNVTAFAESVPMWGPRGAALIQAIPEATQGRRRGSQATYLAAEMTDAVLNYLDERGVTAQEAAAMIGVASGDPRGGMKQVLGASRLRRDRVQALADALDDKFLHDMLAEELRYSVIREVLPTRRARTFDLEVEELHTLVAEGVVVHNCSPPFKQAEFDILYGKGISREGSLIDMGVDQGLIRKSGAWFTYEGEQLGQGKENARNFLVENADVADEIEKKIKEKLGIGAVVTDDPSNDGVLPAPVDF

[9] = target: Dual specificity tyrosine-phosphorylation-regulated kinase 1A (Rattus norvegicus, UniProt Q63470); type: biochemical, Homo sapiens
[10] = HeLa cell cytotoxicity, dose response, cytotoxicity control for MgcRacGAP inhibitor project (AID 624300); type: functional
[11] = target: T3, Rac GTPase-activating protein 1 (Homo sapiens, UniProt Q9H0H5); experiment: MgcRacGAP GTPase-activating activity inhibitors, confirmation, biochemical, ADP Hunter fluorescence, primary and confirmatory (AID 624330); type: functional
T3 sequence (Q9H0H5 whole entry): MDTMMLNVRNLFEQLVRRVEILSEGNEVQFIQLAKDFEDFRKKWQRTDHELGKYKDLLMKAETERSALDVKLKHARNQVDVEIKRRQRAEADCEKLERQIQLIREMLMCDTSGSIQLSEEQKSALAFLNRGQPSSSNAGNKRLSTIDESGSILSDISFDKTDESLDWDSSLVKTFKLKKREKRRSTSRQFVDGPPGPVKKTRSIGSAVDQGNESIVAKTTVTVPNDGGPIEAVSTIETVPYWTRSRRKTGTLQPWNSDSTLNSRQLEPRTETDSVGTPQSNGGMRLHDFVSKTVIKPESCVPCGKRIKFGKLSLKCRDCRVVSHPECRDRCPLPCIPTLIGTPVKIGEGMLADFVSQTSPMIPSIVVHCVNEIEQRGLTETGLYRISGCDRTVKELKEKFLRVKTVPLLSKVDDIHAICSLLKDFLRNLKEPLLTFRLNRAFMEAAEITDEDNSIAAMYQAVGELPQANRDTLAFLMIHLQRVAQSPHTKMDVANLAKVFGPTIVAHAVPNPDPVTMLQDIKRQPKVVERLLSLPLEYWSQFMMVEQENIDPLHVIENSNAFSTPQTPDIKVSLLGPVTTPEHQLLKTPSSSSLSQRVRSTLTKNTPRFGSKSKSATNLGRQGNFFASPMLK

Dual specificity protein phosphatase 3, sequence (P51452 whole entry): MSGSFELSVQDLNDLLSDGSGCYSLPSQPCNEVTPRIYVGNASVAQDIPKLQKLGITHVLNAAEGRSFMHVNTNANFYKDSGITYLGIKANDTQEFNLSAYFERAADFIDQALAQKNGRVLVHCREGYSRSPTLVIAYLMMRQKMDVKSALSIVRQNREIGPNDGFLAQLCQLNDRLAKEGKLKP

Row | SMILES | Ki [1] | EC50 [2] | EC50 (cells [3]) | EC50 [4] | EC50 (cells [5]) | AC50 [6] | AC50 [7] | AC50 [8] | EC50 (Protein RecA) | AC50 [9] | CC50 [10] | IC50 [11]
1 | Fc1c(F)c(C(F)(F)F)c(F)c(F)c1Oc1cccc2cccnc12 | 122 µM (inactive) |  |  |  |  |  |  |  |  |  |  | 
2 | Oc1ccc(/C=N/Nc2ccc(C(F)(F)F)cn2)c(O)c1 |  | > 150 µM (inactive) | 27.7 µM (active) | > 38 µM (not active) | 44.7 µM (active) | 8.01 µM (active) | 11.8 µM (active) | 81.4 µM (active) | 110 µM (inconclusive) | 5.23 µM (active) | 100 µM (active) | 37 µM (active)
